Experimental data from ChEMBL document CHEMBL1201861, “Genomics of Drug Sensitity in Cancer screening data, Wellcome Trust Sanger Institute”.

How the values were obtained:
Assay in all cases: cells
SBC-1 = format: functional, cell-based, Homo sapiens; conditions: Homo sapiens, SBC-1;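 also: cell viability assay measuring growth inhibition of the SBC-1 cell line, IC50 being the concentration that halves growth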
Description: SANGER: Inhibition of human SBC-1 cell growth in a cell viability assay.

MPP-89 = format: functional, cell-based, Homo sapiens; conditions: Homo sapiens, MPP-89;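 also: growth inhibition of human MPP-89 cells, read out with a cell viability assay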
Description: SANGER: Inhibition of human MPP-89 cell growth in a cell viability assay.

HOP-62 = format: functional, cell-based, Homo sapiens; conditions: Homo sapiens, HOP-62;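 also: cell growth inhibition determined with a viability assay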
Description: SANGER: Inhibition of human HOP-62 cell growth in a cell viability assay.

MSTO-211H = format: functional, cell-based, Homo sapiens; conditions: Homo sapiens, MSTO-211H
Description: SANGER: Inhibition of human MSTO-211H cell growth in a cell viability assay.

TE-5 = format: functional, cell-based, Homo sapiens; conditions: Homo sapiens, TE-5;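 also: inhibition of cell growth, read out by a cell viability assay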
Description: SANGER: Inhibition of human TE-5 cell growth in a cell viability assay.

NCI-H1395 = format: functional, cell-based, Homo sapiens; conditions: Homo sapiens, NCI-H1395;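 also: cell viability assay read-out quantifying reduced proliferation of human NCI-H1395 cells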
Description: SANGER: Inhibition of human NCI-H1395 cell growth in a cell viability assay.

8-MG-BA = format: functional, cell-based, Homo sapiens; conditions: Homo sapiens, 8-MG-BA;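 also: growth inhibition of 8-MG-BA cells, read out with a cell viability assay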
Description: SANGER: Inhibition of human 8-MG-BA cell growth in a cell viability assay.

NCI-H2126 = format: functional, cell-based, Homo sapiens; conditions: Homo sapiens, NCI-H2126;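 also: growth inhibition of the cancer cell line, determined with a cell viability readout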
Description: SANGER: Inhibition of human NCI-H2126 cell growth in a cell viability assay.

NOMO-1 = format: functional, cell-based, Homo sapiens; conditions: Homo sapiens, NOMO-1;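 also: growth inhibition of human NOMO-1 cells measured by a cell viability assay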
Description: SANGER: Inhibition of human NOMO-1 cell growth in a cell viability assay.

COR-L88 = format: functional, cell-based, Homo sapiens; conditions: Homo sapiens, COR-L88;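 also: growth inhibition of COR-L88 cells, read out with a cell viability assay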
Description: SANGER: Inhibition of human COR-L88 cell growth in a cell viability assay.

KARPAS-299 = format: functional, cell-based, Homo sapiens; conditions: Homo sapiens, KARPAS-299
Description: SANGER: Inhibition of human KARPAS-299 cell growth in a cell viability assay.

BB65-RCC = format: functional, cell-based, Homo sapiens; conditions: Homo sapiens, BB65-RCC;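 also: growth inhibition of the cell line, measured with a cell viability assay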
Description: SANGER: Inhibition of human BB65-RCC cell growth in a cell viability assay.

MEG-01 = format: functional, cell-based, Homo sapiens; conditions: Homo sapiens, MEG-01;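 also: growth inhibition of MEG-01 cells, read out by a cell viability assay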
Description: SANGER: Inhibition of human MEG-01 cell growth in a cell viability assay.

no-10 = format: functional, cell-based, Homo sapiens; conditions: Homo sapiens;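 also: growth inhibition of no-10 cells, read out with a cell viability assay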
Description: SANGER: Inhibition of human no-10 cell growth in a cell viability assay.

VA-ES-BJ = format: functional, cell-based, Homo sapiens; conditions: Homo sapiens, VA-ES-BJ;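 also: growth inhibition of the VA-ES-BJ cell line, read out by a cell viability assay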
Description: SANGER: Inhibition of human VA-ES-BJ cell growth in a cell viability assay.

SK-MEL-1 = format: functional, cell-based, Homo sapiens; conditions: Homo sapiens, SK-MEL-1;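 also: growth inhibition of human SK-MEL-1 cells, read out by a cell viability assay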
Description: SANGER: Inhibition of human SK-MEL-1 cell growth in a cell viability assay.

LAMA-84 = format: functional, cell-based, Homo sapiens; conditions: Homo sapiens, LAMA-84;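 also: growth inhibition of LAMA-84 cells, read out with a cell viability assay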
Description: SANGER: Inhibition of human LAMA-84 cell growth in a cell viability assay.

BB49-HNC = format: functional, cell-based, Homo sapiens; conditions: Homo sapiens, BB49-HNC;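 also: cell viability assay read-out, reported as inhibition of BB49-HNC cell growth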
Description: SANGER: Inhibition of human BB49-HNC cell growth in a cell viability assay.

RS4-11 = format: functional, cell-based, Homo sapiens; conditions: Homo sapiens, RS4-11;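 also: growth inhibition of RS4-11 cells, read out by a cell viability assay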
Description: SANGER: Inhibition of human RS4-11 cell growth in a cell viability assay.

NCI-H747 = format: functional, cell-based, Homo sapiens; conditions: Homo sapiens, NCI-H747;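 also: growth inhibition of human NCI-H747 cells, read out by a cell viability assay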
Description: SANGER: Inhibition of human NCI-H747 cell growth in a cell viability assay.

SK-N-FI = format: functional, cell-based, Homo sapiens; conditions: Homo sapiens, SK-N-FI;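 also: cell viability assay measuring growth inhibition of human SK-N-FI cells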
Description: SANGER: Inhibition of human SK-N-FI cell growth in a cell viability assay.

KARPAS-45 = format: functional, cell-based, Homo sapiens; conditions: Homo sapiens, KARPAS-45;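 also: inhibition of cell line growth, read out through a viability assay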
Description: SANGER: Inhibition of human KARPAS-45 cell growth in a cell viability assay.

HCC2157 = format: functional, cell-based, Homo sapiens; conditions: Homo sapiens, HCC2157;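 also: growth inhibition of the cancer cell line, read out as cell viability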
Description: SANGER: Inhibition of human HCC2157 cell growth in a cell viability assay.

OS-RC-2 = format: functional, cell-based, Homo sapiens; conditions: Homo sapiens, OS-RC-2;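 also: growth inhibition of human OS-RC-2 cells, measured by a cell viability assay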
Description: SANGER: Inhibition of human OS-RC-2 cell growth in a cell viability assay.

NH-12 = format: functional, cell-based, Homo sapiens; conditions: Homo sapiens, NH-12;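 also: growth inhibition of NH-12 cells, read out with a cell viability assay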
Description: SANGER: Inhibition of human NH-12 cell growth in a cell viability assay.

DMS-114 = format: functional, cell-based, Homo sapiens; conditions: Homo sapiens, DMS-114
A704 = format: functional, cell-based, Homo sapiens; conditions: Homo sapiens, A704;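 also: growth inhibition of human A704 cells, read out with a cell viability assay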
Description: SANGER: Inhibition of human A704 cell growth in a cell viability assay.

EW-24 = format: functional, cell-based, Homo sapiens; conditions: Homo sapiens, EW-24;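 also: human EW-24 cancer cell line, growth inhibition read out via a cell viability assay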
Description: SANGER: Inhibition of human EW-24 cell growth in a cell viability assay.

P30-OHK = format: functional, cell-based, Homo sapiens; conditions: Homo sapiens, P30-OHK;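 also: growth inhibition of the P30-OHK cell line, read out with a cell viability assay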
Description: SANGER: Inhibition of human P30-OHK cell growth in a cell viability assay.

SK-PN-DW = format: functional, cell-based, Homo sapiens; conditions: Homo sapiens, SK-PN-DW;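 also: growth inhibition measured with a viability assay on these cells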
Description: SANGER: Inhibition of human SK-PN-DW cell growth in a cell viability assay.

BT-474 = format: functional, cell-based, Homo sapiens; conditions: Homo sapiens, BT-474
Description: SANGER: Inhibition of human BT-474 cell growth in a cell viability assay.

MHH-NB-11 = format: functional, cell-based, Homo sapiens; conditions: Homo sapiens, MHH-NB-11;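 also: growth inhibition of human MHH-NB-11 cells, read out by a cell viability assay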
Description: SANGER: Inhibition of human MHH-NB-11 cell growth in a cell viability assay.

BE-13 = format: functional, cell-based, Homo sapiens; conditions: Homo sapiens, BE-13;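 also: growth inhibition of human BE-13 cells, measured with a cell viability assay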
Description: SANGER: Inhibition of human BE-13 cell growth in a cell viability assay.

COLO-824 = format: functional, cell-based, Homo sapiens; conditions: Homo sapiens, COLO-824
Description: SANGER: Inhibition of human COLO-824 cell growth in a cell viability assay.

MZ1-PC = format: functional, cell-based, Homo sapiens; conditions: Homo sapiens, MZ1-PC;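 also: cell viability assay measuring growth inhibition of human MZ1-PC cells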
Description: SANGER: Inhibition of human MZ1-PC cell growth in a cell viability assay.

TE-12 = format: functional, cell-based, Homo sapiens; conditions: Homo sapiens, TE-12;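 also: growth inhibition of TE-12 cells, read out by a cell viability assay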
Description: SANGER: Inhibition of human TE-12 cell growth in a cell viability assay.

CTB-1 = format: functional, cell-based, Homo sapiens; conditions: Homo sapiens, CTB-1
Description: SANGER: Inhibition of human CTB-1 cell growth in a cell viability assay.

NCI-H1355 = format: functional, cell-based, Homo sapiens; conditions: Homo sapiens, NCI-H1355;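 also: growth inhibition of human NCI-H1355 cells, read out by a cell viability assay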
Description: SANGER: Inhibition of human NCI-H1355 cell growth in a cell viability assay.

MN-60 = format: functional, cell-based, Homo sapiens; conditions: Homo sapiens, MN-60;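 also: growth inhibition of the MN-60 cell line, determined with a cell viability assay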
Description: SANGER: Inhibition of human MN-60 cell growth in a cell viability assay.

C2BBe1 = format: functional, cell-based, Homo sapiens; conditions: Homo sapiens, C2BBe1;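 also: growth inhibition of C2BBe1 cells, read out through a viability assay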
Description: SANGER: Inhibition of human C2BBe1 cell growth in a cell viability assay.

MFH-ino = format: functional, cell-based, Homo sapiens; conditions: Homo sapiens, MFH-ino;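 also: growth inhibition of human MFH-ino cells, read out by a cell viability assay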
Description: SANGER: Inhibition of human MFH-ino cell growth in a cell viability assay.

U-87 MG = format: functional, cell-based, Homo sapiens, U-87MG ATCC; conditions: Homo sapiens, U-87 MG;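 also: growth inhibition of the cells measured with a viability assay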
Description: SANGER: Inhibition of human U-87-MG cell growth in a cell viability assay.

KMOE-2 = format: functional, cell-based, Homo sapiens; conditions: Homo sapiens, KMOE-2;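 also: growth inhibition of human KMOE-2 cells, read out with a cell viability assay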
Description: SANGER: Inhibition of human KMOE-2 cell growth in a cell viability assay.

IST-MES1 = format: functional, cell-based, Homo sapiens; conditions: Homo sapiens, IST-MES1;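 also: growth inhibition of IST-MES1 cells, measured with a cell viability assay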
Description: SANGER: Inhibition of human IST-MES1 cell growth in a cell viability assay.

QIMR-WIL = format: functional, cell-based, Homo sapiens; conditions: Homo sapiens, QIMR-WIL;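 also: growth inhibition of QIMR-WIL cells, read out with a cell viability assay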
Description: SANGER: Inhibition of human QIMR-WIL cell growth in a cell viability assay.

EW-11 = format: functional, cell-based, Homo sapiens; conditions: Homo sapiens, EW-11;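 also: growth inhibition of human EW-11 cells, measured with a cell viability assay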
Description: SANGER: Inhibition of human EW-11 cell growth in a cell viability assay.

SMILES: Cc1ccc(-c2c(C(=O)CCl)n(CCCO)c3ncnc(N)c23)cc1
- IC50 (SBC-1): > 4 µM
- IC50 (MPP-89): > 4 µM
- IC50 (HOP-62): > 4 µM
- IC50 (MSTO-211H): > 4 µM
- IC50 (TE-5): > 4 µM
- IC50 (NCI-H1395): > 4 µM
- IC50 (8-MG-BA): > 4 µM
- IC50 (NCI-H2126): > 4 µM
- IC50 (NOMO-1): > 4 µM
- IC50 (COR-L88): > 4 µM
- IC50 (KARPAS-299): > 4 µM
- IC50 (BB65-RCC): > 4 µM
- IC50 (MEG-01): > 4 µM
- IC50 (no-10): > 4 µM
- IC50 (VA-ES-BJ): > 4 µM
- IC50 (SK-MEL-1): > 4 µM
- IC50 (LAMA-84): > 4 µM
- IC50 (BB49-HNC): > 4 µM
- IC50 (RS4-11): > 4 µM
- IC50 (NCI-H747): > 4 µM
- IC50 (SK-N-FI): > 4 µM
- IC50 (KARPAS-45): > 4 µM
- IC50 (HCC2157): > 4 µM
- IC50 (OS-RC-2): > 4 µM
- IC50 (NH-12): > 4 µM
- IC50 (DMS-114): > 4 µM
- IC50 (A704): > 4 µM
- IC50 (EW-24): > 4 µM
- IC50 (P30-OHK): > 4 µM
- IC50 (SK-PN-DW): > 4 µM
- IC50 (BT-474): > 4 µM
- IC50 (MHH-NB-11): > 4 µM
- IC50 (BE-13): > 4 µM
- IC50 (COLO-824): > 4 µM
- IC50 (MZ1-PC): 2.92 µM
- IC50 (TE-12): > 4 µM
- IC50 (CTB-1): 1.62 µM
- IC50 (NCI-H1355): > 4 µM
- IC50 (MN-60): > 4 µM
- IC50 (C2BBe1): 2.74 µM
- IC50 (MFH-ino): > 4 µM
- IC50 (U-87 MG): > 4 µM
- IC50 (KMOE-2): > 4 µM
- IC50 (IST-MES1): > 4 µM
- IC50 (QIMR-WIL): > 4 µM
- IC50 (EW-11): > 4 µM

SMILES: COc1cc2ncn(-c3cc(OCc4ccccc4C(F)(F)F)c(C(N)=O)s3)c2cc1OC [GW843682X]
- IC50 (SBC-1): > 0.256 µM
- IC50 (MPP-89): 0.226 µM
- IC50 (HOP-62): 0.0448 µM
- IC50 (MSTO-211H): > 0.256 µM
- IC50 (TE-5): 0.0234 µM
- IC50 (NCI-H1395): > 0.256 µM
- IC50 (8-MG-BA): 0.0194 µM
- IC50 (NCI-H2126): 0.0679 µM
- IC50 (NOMO-1): > 0.256 µM
- IC50 (COR-L88): 0.0784 µM
- IC50 (KARPAS-299): 0.0943 µM
- IC50 (BB65-RCC): 0.0689 µM
- IC50 (MEG-01): 0.0419 µM
- IC50 (no-10): 0.0207 µM
- IC50 (VA-ES-BJ): 0.0227 µM
- IC50 (SK-MEL-1): > 0.256 µM
- IC50 (LAMA-84): 0.0399 µM
- IC50 (BB49-HNC): > 0.256 µM
- IC50 (RS4-11): 0.0128 µM
- IC50 (NCI-H747): 0.0767 µM
- IC50 (SK-N-FI): 0.232 µM
- IC50 (KARPAS-45): 0.00613 µM
- IC50 (HCC2157): > 0.256 µM
- IC50 (OS-RC-2): 0.188 µM
- IC50 (NH-12): > 0.256 µM
- IC50 (DMS-114): 0.122 µM
- IC50 (A704): > 0.256 µM
- IC50 (EW-24): > 0.256 µM
- IC50 (P30-OHK): > 0.256 µM
- IC50 (SK-PN-DW): 0.0387 µM
- IC50 (BT-474): > 0.256 µM
- IC50 (MHH-NB-11): 0.227 µM
- IC50 (BE-13): 0.011 µM
- IC50 (COLO-824): > 0.256 µM
- IC50 (MZ1-PC): 0.0222 µM
- IC50 (TE-12): 0.0273 µM
- IC50 (CTB-1): > 0.256 µM
- IC50 (NCI-H1355): 0.0119 µM
- IC50 (MN-60): > 0.256 µM
- IC50 (C2BBe1): > 0.256 µM
- IC50 (MFH-ino): 0.0355 µM
- IC50 (U-87 MG): > 0.256 µM
- IC50 (KMOE-2): 0.231 µM
- IC50 (IST-MES1): 0.159 µM
- IC50 (QIMR-WIL): 0.0423 µM
- IC50 (EW-11): > 0.256 µM

SMILES: CC(=O)O[C@H]1C(=O)[C@@]2(C)[C@H]([C@H](OC(=O)c3ccccc3)[C@]3(O)C[C@H](OC(=O)[C@H](O)[C@@H](NC(=O)c4ccccc4)c4ccccc4)C(C)=C1C3(C)C)[C@]1(OC(C)=O)CO[C@@H]1C[C@@H]2O [PACLITAXEL]
- IC50 (SBC-1): 0.0504 µM
- IC50 (MPP-89): > 0.102 µM
- IC50 (HOP-62): 0.0128 µM
- IC50 (MSTO-211H): > 0.102 µM
- IC50 (TE-5): 0.015 µM
- IC50 (NCI-H1395): > 0.102 µM
- IC50 (8-MG-BA): 0.00796 µM
- IC50 (NCI-H2126): 0.0277 µM
- IC50 (NOMO-1): 0.0928 µM
- IC50 (COR-L88): 0.0593 µM
- IC50 (KARPAS-299): 0.0398 µM
- IC50 (BB65-RCC): 0.0253 µM
- IC50 (MEG-01): 0.0298 µM
- IC50 (no-10): 0.00362 µM
- IC50 (VA-ES-BJ): 0.003 µM
- IC50 (SK-MEL-1): > 0.102 µM
- IC50 (LAMA-84): > 0.102 µM
- IC50 (BB49-HNC): > 0.102 µM
- IC50 (RS4-11): 0.00836 µM
- IC50 (NCI-H747): 0.0293 µM
- IC50 (SK-N-FI): > 0.102 µM
- IC50 (KARPAS-45): 0.0127 µM
- IC50 (HCC2157): > 0.102 µM
- IC50 (OS-RC-2): 0.0775 µM
- IC50 (NH-12): > 0.102 µM
- IC50 (DMS-114): 0.025 µM
- IC50 (A704): > 0.102 µM
- IC50 (EW-24): 0.0648 µM
- IC50 (P30-OHK): > 0.102 µM
- IC50 (SK-PN-DW): 0.0111 µM
- IC50 (BT-474): > 0.102 µM
- IC50 (MHH-NB-11): > 0.102 µM
- IC50 (BE-13): 0.00636 µM
- IC50 (COLO-824): > 0.102 µM
- IC50 (MZ1-PC): 0.000729 µM
- IC50 (TE-12): 0.0331 µM
- IC50 (CTB-1): 0.0781 µM
- IC50 (NCI-H1355): 0.00914 µM
- IC50 (MN-60): > 0.102 µM
- IC50 (C2BBe1): > 0.102 µM
- IC50 (MFH-ino): 0.00268 µM
- IC50 (U-87 MG): > 0.102 µM
- IC50 (KMOE-2): > 0.102 µM
- IC50 (IST-MES1): 0.0791 µM
- IC50 (QIMR-WIL): 0.0103 µM
- IC50 (EW-11): > 0.102 µM
